Test results reported in patent publication US20140271734A1, “BILE ACID RECYCLING INHIBITORS FOR TREATMENT OF BARRETT'S ESOPHAGUS AND GASTROESOPHAGEAL REFLUX DISEASE” (LUMENA PHARMACEUTICALS, INC., priority 2013, published 2014).
Like-named read-outs stand apart in the source and are kept apart here.

Key:
[1] = Toxicokinetics of LUM001 free form, 13-week oral capsule toxicity study in dogs; assay type: in vivo, Beagle dogs; parameters: AUC/Dose / Cmax/Dose: unit not given here; conditions: for Cmax / Tmax / AUC(0-t): Beagle, dog, plasma, oral; for AUC(0-t): read-out: AUC(0-24 h), mean
Protocol: Six- to seven-month old Beagle dogs of body weights of 4.9-9.5 kg (4/sex/group) orally via capsules at 0, 5, 20 or 100 mg/kg for 13 consecutive weeks. Plasma levels of LUM001 (free form) were evaluated on Days 1 and 91. LUM001 was administered by once daily oral gelatin capsules. […] therefore, 105% of a stated dose is given to provide the appropriate amount of compound for dosing. On study Day 1 and Day 91, approximately 2 mL of venous blood was collected in heparinized tubes from the cephalic vein of each animal at 1, 2, 3, 5, 8, and 24 hours post-dose. Blood collection tubes were mixed and placed on ice during the collection period after which they were centrifuged and the plasma was harvested into cryotubes within approximately 60 minutes of blood collection. Plasma samples were stored at approximately −70° C. or lower until analyzed.
The concentration of LUM001 free form in plasma were determined using an LCMSMS method. The assay sensitivity was 5.00 ng/mL for a […] sample.

plasma bile acid = test: Plasma bile acid concentrations in ZDF rats; assay type: in vivo; conditions: SC-435 1, 10 or 30 mg/kg; LUM002 0.3, 1, 3, 10 or 30 mg/kg; oral gavage twice a day, end of second week, n=4
Protocol: Male Zucker diabetic fatty rats (ZDF/GmiCrl-fa/fa) were purchased from Charles River (Raleigh, N.C.) and housed under controlled conditions (12:12 light-dark cycle, 24° C. and 50% relative humidity) with free access to rodent food (Purina 5008, Harlan Teklad, Indianapolis, Ind.). All rats arrived at seven weeks of age (±3 days). After a one-week acclimation period, rats were anesthetized with isoflurane (Abbott Laboratories, IL) and tail-vein blood samples were collected at 9 am without fasting. Blood glucose levels were measured using a glucometer (Bayer, Leverkusen, Germany). In order to ensure balanced treatment groups, ZDF rats were assigned to six treatment groups based upon baseline glucose: vehicle (0.5% HPMC, 0.1% Tween80) and five doses of 264W94 (0.001, 0.01, 0.1, 1, 10 mg/kg). All treatments were given via oral gavage twice a day and animals were followed for two weeks with blood samples collected from tail vein at the end of each week at 9 am without fasting. Fecal samples were collected for 24 hours during the second week of treatment.
Non-esterified fatty acids (NEFA), bile acids, and bile acids in fecal extraction were measured using the Olympus AU640 clinical chemistry analyzer (Beckman Coulter, Irving, Tex.).
Male ZDF rats (n=4) were administered vehicle, SC-435 (1, 10 or 30 mg/kg) or LUM002 (0.3, 1, 3, 10 or 30 mg/kg) by oral gavage twice a day for 2 weeks. Plasma bile acid levels were determined at the end of the second week. […] Data are expressed as mean values±SEM.

[2] = system: Aspartate Aminotransferase (ASAT); test: Plasma aspartate aminotransferase in ZDF rats, week 3; assay type: in vivo; conditions: twice daily oral gavage
[3] = both sexes, 5 mg/kg, Day 1, 5 mg/kg, Comb
[4] = both sexes, 5 mg/kg, Day 91, 5 mg/kg, Comb
[5] = both sexes, 20 mg/kg, Day 1, 20 mg/kg, Comb
[6] = both sexes, 20 mg/kg, Day 91, 20 mg/kg, Comb
[7] = both sexes, 100 mg/kg, Day 1, 100 mg/kg, Comb
[8] = both sexes, 100 mg/kg, Day 91, 100 mg/kg, Comb
[9] = female, 5 mg/kg, Day 1, 5 mg/kg, F
[10] = female, 20 mg/kg, Day 1, 20 mg/kg, F
[11] = female, 20 mg/kg, Day 91, 20 mg/kg, F
[12] = female, 100 mg/kg, Day 1, 100 mg/kg, F
[13] = female, 100 mg/kg, Day 91, 100 mg/kg, F
[14] = male, 5 mg/kg, Day 1, 5 mg/kg, M
[15] = male, 5 mg/kg, Day 91, 5 mg/kg, M
[16] = male, 20 mg/kg, Day 1, 20 mg/kg, M
[17] = male, 20 mg/kg, Day 91, 20 mg/kg, M
[18] = male, 100 mg/kg, Day 1, 100 mg/kg, M
[19] = male, 100 mg/kg, Day 91, 100 mg/kg, M

## CCCCC1(CCCC)CS(=O)(=O)c2ccc(N(C)C)cc2[C@@H](c2ccc(OCc3ccc(C[N+]45CCN(CC4)CC5)cc3)cc2)[C@H]1O [LUM001]
[1]; Day 1, 5 mg/kg, Comb
  AUC/Dose: 3.55
  BA: 0.1%
  Cmax/Dose: 1.81
[1]; Day 1, 5 mg/kg, F
  AUC/Dose: 4.17
  BA: <0.1%
  Cmax/Dose: 1.87
[1]; Day 1, 5 mg/kg, M
  AUC/Dose: 2.92
  BA: <0.1%
  Cmax/Dose: 1.76
[1]; Day 1, 20 mg/kg, Comb
  AUC/Dose: 3.63
  BA: 0.1%
  Cmax/Dose: 1.25
[1]; Day 1, 20 mg/kg, F
  AUC/Dose: 2.43
  BA: <0.1%
  Cmax/Dose: 1.27
[1]; Day 1, 20 mg/kg, M
  AUC/Dose: 4.84
  BA: <0.1%
  Cmax/Dose: 1.24
[1]; Day 1, 100 mg/kg, Comb
  AUC/Dose: 2.39
  BA: <0.1%
  Cmax/Dose: 0.907
[1]; Day 1, 100 mg/kg, F
  AUC/Dose: 3.44
  BA: <0.1%
  Cmax/Dose: 1.17
[1]; Day 1, 100 mg/kg, M
  AUC/Dose: 1.34
  BA: <0.1%
  Cmax/Dose: 0.648
[1]; Day 91, 5 mg/kg, Comb
  AUC/Dose: 0.350
  BA: <0.1%
  Cmax/Dose: 0.350
[1]; Day 91, 5 mg/kg, F
  AUC/Dose: 0.00
  BA: <0.1%
  Cmax/Dose: 0.00
[1]; Day 91, 5 mg/kg, M
  AUC/Dose: 0.700
  BA: <0.1%
  Cmax/Dose: 0.700
[1]; Day 91, 20 mg/kg, Comb
  AUC/Dose: 2.54
  BA: 0.1%
  Cmax/Dose: 1.19
[1]; Day 91, 20 mg/kg, F
  AUC/Dose: 2.70
  BA: <0.1%
  Cmax/Dose: 1.25
[1]; Day 91, 20 mg/kg, M
  AUC/Dose: 2.38
  BA: <0.1%
  Cmax/Dose: 1.13
[1]; Day 91, 100 mg/kg, Comb
  AUC/Dose: 5.03
  BA: 0.2%
  Cmax/Dose: 1.40
[1]; Day 91, 100 mg/kg, F
  AUC/Dose: 6.01
  BA: <0.1%
  Cmax/Dose: 1.82
[1]; Day 91, 100 mg/kg, M
  AUC/Dose: 4.05
  BA: <0.1%
  Cmax/Dose: 0.974
[1]; [3]
  Cmax: 9.07 ng/mL
  Tmax: 1.5 h
  AUC(0-t): 17.7 ng·h/mL
[1]; [4]
  Cmax: 1.75 ng/mL
  Tmax: 0.375 h
  AUC(0-t): 1.75 ng·h/mL
[1]; [5]
  Cmax: 25.1 ng/mL
  Tmax: 2.13 h
  AUC(0-t): 72.6 ng·h/mL
[1]; [6]
  Cmax: 23.8 ng/mL
  Tmax: 1.88 h
  AUC(0-t): 50.8 ng·h/mL
[1]; [7]
  Cmax: 90.7 ng/mL
  Tmax: 1.38 h
  AUC(0-t): 239 ng·h/mL
[1]; [8]
  Cmax: 140 ng/mL
  Tmax: 2 h
  AUC(0-t): 503 ng·h/mL
[1]; [9]
  Cmax: 9.34 ng/mL
  Tmax: 1.25 h
  AUC(0-t): 20.9 ng·h/mL
[1]; female, 5 mg/kg, Day 91, 5 mg/kg, F
  Tmax: 0 h
[1]; [10]
  Cmax: 25.3 ng/mL
  Tmax: 2 h
  AUC(0-t): 48.5 ng·h/mL
[1]; [11]
  Cmax: 25 ng/mL
  Tmax: 2 h
  AUC(0-t): 53.9 ng·h/mL
[1]; [12]
  Cmax: 117 ng/mL
  Tmax: 1.5 h
  AUC(0-t): 344 ng·h/mL
[1]; [13]
  Cmax: 182 ng/mL
  Tmax: 1.75 h
  AUC(0-t): 601 ng·h/mL
[1]; [14]
  Cmax: 8.79 ng/mL
  Tmax: 1.75 h
  AUC(0-t): 14.6 ng·h/mL
[1]; [15]
  Cmax: 3.5 ng/mL
  Tmax: 0.75 h
  AUC(0-t): 3.5 ng·h/mL
[1]; [16]
  Cmax: 24.8 ng/mL
  Tmax: 2.25 h
  AUC(0-t): 96.7 ng·h/mL
[1]; [17]
  Cmax: 22.6 ng/mL
  Tmax: 1.75 h
  AUC(0-t): 47.6 ng·h/mL
[1]; [18]
  Cmax: 64.8 ng/mL
  Tmax: 1.25 h
  AUC(0-t): 134 ng·h/mL
[1]; [19]
  Cmax: 97.4 ng/mL
  Tmax: 2.25 h
  AUC(0-t): 405 ng·h/mL

## CCCC[C@]1(CC)CS(=O)(=O)c2ccc(N(C)C)cc2[C@@H](c2cccc(NC(=O)N[C@@H]3O[C@H](COS(=O)(=O)[O-])[C@@H](O)[C@H](OCc4ccccc4)[C@H]3O)c2)[C@H]1O.CCO.O.[K+] [LUM002, potassium((2R,3R,4S,5R,6R)-4-benzyloxy-6-{3-[3-((3S,4R,5R)-3-butyl-7-dimethylamino-3-ethyl-4-hydroxy-1,1-dioxo-2,3,4,5-tetrahydro-1H-benzo[b]thiepin-5-yl)-phenyl]-ureido}-3,5-dihydroxy-tetrahydro-pyran-2-ylmethyl)sulphate ethanolate, hydrate]
Plasma bile acid
  Plasma bile acid levels: decreased for all doses
[2]
  Plasma aspartate aminotransferase (ASAT): statistically significant reduction in ASAT
